Experimental data taken from patent US4348393A, “N-Aryl oxazolidinones, oxazolidinethiones, pyrrolidinones, pyrrolidines and thiazolidinones” (Delalande S.A., priority 1978, dated 1982).

What was measured:
[1] = test system: generalized trembling caused by dl-5-hydroxytryptophane; experiment: Test A: potentiation in mice of generalized trembling caused by dl-5-hydroxytryptophane; type: in vivo; settings: po, mice, potentiation of trembling by dl-5-hydroxytryptophane 200 mg/kg interperitoneal; for ED50: Mus musculus, read-out: Test A ED 50
Description: Test A: Potentiation in mice of generalized trembling caused by an interperitoneal injection (200 mg/kg) of dl-5-hydroxytryptophane, following the protocol described by C. GOURET and G. RAYNAUD in J. Pharmacol. (Paris), (1974), 5, 231.

[2] = test system: ptosis observed one hour after reserpine; experiment: Test B: antagonism of reserpine-induced ptosis in mice; type: in vivo; settings: Mus musculus, 1 h, po, antagonism of ptosis one hour after reserpine 2 mg/kg intravenous, read-out: Test B ED 50
Description: Test B: Antagonism with respect to the ptosis observed one hour after an intravenous injection (2 mg/kg) of reserpine given to mice, following the protocol described by C.

## Cc1cccc(N2CC(CO)OC2=O)c1 (stereo not shown) [TOLOXATONE, reference compound]
[1]
  ED50: 60 mg/kg
[2]
  ED50: 50 mg/kg

## CC(=O)OCC1CN(c2ccc(OCC#N)cc2)C(=O)O1 (stereo not shown) [compound 1]
[1]
  ED50: 12.5 mg/kg
[2]
  ED50: 6.2 mg/kg

## CCC(=O)OCC1CN(c2ccc(OCC#N)cc2)C(=O)O1 (stereo not shown) [compound 2]
[1]
  ED50: 12.5 mg/kg
[2]
  ED50: 8 mg/kg

## CCC(=O)OCC1CN(c2ccc(OCCC#N)cc2)C(=O)O1 (stereo not shown) [compound 4]
[1]
  ED50: 2.3 mg/kg
[2]
  ED50: 3.4 mg/kg

## CC(C)C(=O)OCC1CN(c2ccc(OCCC#N)cc2)C(=O)O1 (stereo not shown) [compound 5]
[1]
  ED50: 4.7 mg/kg
[2]
  ED50: 9.5 mg/kg

## CCCCC(=O)OCC1CN(c2ccc(OCCC#N)cc2)C(=O)O1 (stereo not shown) [compound 6]
[1]
  ED50: 2.4 mg/kg
[2]
  ED50: 6 mg/kg

## CC(C)(C)C(=O)OCC1CN(c2ccc(OCCC#N)cc2)C(=O)O1 (stereo not shown) [compound 7]
[2]
  ED50: 7.4 mg/kg

## N#CCCOc1ccc(N2CC(COC(=O)C3CCCCC3)OC2=O)cc1 (stereo not shown) [compound 8]
[1]
  ED50: 2.2 mg/kg
[2]
  ED50: 7.2 mg/kg

## CCCCCCCCC(=O)OCC1CN(c2ccc(OCCC#N)cc2)C(=O)O1 (stereo not shown) [compound 9]
[2]
  ED50: 25 mg/kg

## N#CCCOc1ccc(N2CC(COC(=O)c3ccccc3)OC2=O)cc1 (stereo not shown) [compound 10]
[1]
  ED50: 2.4 mg/kg
[2]
  ED50: 5.8 mg/kg

## CCCCOc1ccc(N2CC(COC(C)=O)OC2=O)cc1 (stereo not shown) [compound 11]
[1]
  ED50: 4.2 mg/kg
[2]
  ED50: 6.2 mg/kg

## CCCCOc1ccc(N2CC(COC(=O)C(C)(C)C)OC2=O)cc1 (stereo not shown) [compound 12]
[1]
  ED50: 4.6 mg/kg
[2]
  ED50: 6 mg/kg

## CCC(=O)OCC1CN(c2ccc(OCC3CCCC3)cc2)C(=O)O1 (stereo not shown) [compound 14]
[1]
  ED50: 2 mg/kg
[2]
  ED50: 3.1 mg/kg

## CC(C)C(=O)OCC1CN(c2ccc(OCC3CCCC3)cc2)C(=O)O1 (stereo not shown) [compound 15]
[1]
  ED50: 2.2 mg/kg
[2]
  ED50: 2 mg/kg

## CCCCC(=O)OCC1CN(c2ccc(OCC3CCCC3)cc2)C(=O)O1 (stereo not shown) [compound 16]
[1]
  ED50: 1.7 mg/kg
[2]
  ED50: 1.5 mg/kg

## CC(C)(C)C(=O)OCC1CN(c2ccc(OCC3CCCC3)cc2)C(=O)O1 (stereo not shown) [compound 17]
[1]
  ED50: 4.8 mg/kg
[2]
  ED50: 3.6 mg/kg

## O=C(OCC1CN(c2ccc(OCC3CCCC3)cc2)C(=O)O1)C1CCCCC1 (stereo not shown) [compound 18]
[1]
  ED50: 4 mg/kg
[2]
  ED50: 4.25 mg/kg

## CCCCCCCCC(=O)OCC1CN(c2ccc(OCC3CCCC3)cc2)C(=O)O1 (stereo not shown) [compound 19]
[1]
  ED50: 5.5 mg/kg
[2]
  ED50: 3.5 mg/kg

## O=C(OCC1CN(c2ccc(OCC3CCCC3)cc2)C(=O)O1)c1ccccc1 (stereo not shown) [compound 20]
[1]
  ED50: 8.8 mg/kg
[2]
  ED50: 3.7 mg/kg

## CC(=O)OCC1CN(c2ccc(OCC3CCCCC3)cc2)C(=O)O1 (stereo not shown) [compound 21]
[1]
  ED50: 2.1 mg/kg
[2]
  ED50: 3.5 mg/kg

## CCC(=O)OCC1CN(c2ccc(OCC3CCCCC3)cc2)C(=O)O1 (stereo not shown) [compound 22]
[2]
  ED50: 3 mg/kg

## CC(=O)OCC1CN(c2ccc(OCc3ccccc3)cc2)C(=O)O1 (stereo not shown) [compound 23]
[1]
  ED50: 12 mg/kg
[2]
  ED50: 12.5 mg/kg

## CC(C)C(=O)OCC1CN(c2ccc(OCc3ccccc3)cc2)C(=O)O1 (stereo not shown) [compound 25]
[1]
  ED50: 15 mg/kg
[2]
  ED50: 25 mg/kg

## CCCCC(=O)OCC1CN(c2ccc(OCc3ccccc3)cc2)C(=O)O1 (stereo not shown) [compound 26]
[1]
  ED50: 12.5 mg/kg
[2]
  ED50: 20 mg/kg

## CC(C)(C)C(=O)OCC1CN(c2ccc(OCc3ccccc3)cc2)C(=O)O1 (stereo not shown) [compound 27]
[1]
  ED50: 25 mg/kg
[2]
  ED50: 44 mg/kg

## CCCCCCCCC(=O)OCC1CN(c2ccc(OCc3ccccc3)cc2)C(=O)O1 (stereo not shown) [compound 28]
[1]
  ED50: 32 mg/kg
[2]
  ED50: 20 mg/kg

## O=C(OCC1CN(c2ccc(OCc3ccccc3)cc2)C(=O)O1)c1ccccc1 (stereo not shown) [compound 29]
[1]
  ED50: 45 mg/kg
[2]
  ED50: 50 mg/kg

## CC(=O)OCC1CN(c2ccc(OCc3cccc(Cl)c3)cc2)C(=O)O1 (stereo not shown) [compound 30]
[1]
  ED50: 4.2 mg/kg
[2]
  ED50: 4.5 mg/kg

## CCC(=O)OCC1CN(c2ccc(OCc3cccc(Cl)c3)cc2)C(=O)O1 (stereo not shown) [compound 31]
[1]
  ED50: 6.5 mg/kg
[2]
  ED50: 3.6 mg/kg

## CC(C)C(=O)OCC1CN(c2ccc(OCc3cccc(Cl)c3)cc2)C(=O)O1 (stereo not shown) [compound 32]
[1]
  ED50: 4.7 mg/kg
[2]
  ED50: 3.6 mg/kg

## CCCCC(=O)OCC1CN(c2ccc(OCc3cccc(Cl)c3)cc2)C(=O)O1 (stereo not shown) [compound 33]
[1]
  ED50: 9.4 mg/kg
[2]
  ED50: 4.5 mg/kg

## CCC(=O)OCC1CN(c2ccc(OCc3cccc(F)c3)cc2)C(=O)O1 (stereo not shown) [compound 44]
[1]
  ED50: 6.2 mg/kg

## COCC1CN(c2ccc(OCC3=CCCCC3)cc2)C(=O)O1 (stereo not shown) [compound 56]
[2]
  ED50: 3 mg/kg

## CC(C)OCC1CN(c2ccc(OCc3cccc(Cl)c3)cc2)C(=O)O1 (stereo not shown) [compound 60]
[1]
  ED50: 30 mg/kg

## COCC1CN(c2ccc(OCc3ccc(F)cc3)cc2)C(=O)O1 (stereo not shown) [compound 64]
[2]
  ED50: 4.5 mg/kg

## CCCCOc1ccc(N2CC(CN(C)C)OC2=O)cc1 (stereo not shown) [compound 75]
[1]
  ED50: 8 mg/kg

## CN(C)CC1CN(c2ccc(OCC3CCCC3)cc2)C(=O)O1 (stereo not shown) [compound 78]
[1]
  ED50: 6.2 mg/kg

## OCC1CN(c2ccc(OCC3CCCC3)cc2)C(=S)O1 (stereo not shown) [compound 100]
[1]
  ED50: 6.2 mg/kg

## OCC1CN(c2ccc(OCC3=CCCCC3)cc2)C(=S)O1 (stereo not shown) [compound 101]
[1]
  ED50: 18 mg/kg

## N#CCCOc1ccc(N2CC(CO)OC2=S)cc1 (stereo not shown) [compound 102]
[1]
  ED50: 6.2 mg/kg

## CCCCC(=O)OCC1CN(c2ccc(OCC3CCCCC3)cc2)C(=O)O1 (stereo not shown) [compound 104]
[1]
  ED50: 6.2 mg/kg

## CC(C)(C)C(=O)OCC1CN(c2ccc(OCC3CCCCC3)cc2)C(=O)O1 (stereo not shown) [compound 105]
[1]
  ED50: 6.2 mg/kg

## CCC(=O)OCC1CN(c2ccc(OCc3cccc(F)c3)cc2)C(=O)O1 (stereo not shown) [compound 106]
[1]
  Test A ED 50: 6.2 mg/kg

## CC(C)C(=O)OCC1CN(c2ccc(OCc3cccc(F)c3)cc2)C(=O)O1 (stereo not shown) [compound 107]
[2]
  ED50: 12 mg/kg

## CCCCC(=O)OCC1CN(c2ccc(OCc3cccc(F)c3)cc2)C(=O)O1 (stereo not shown) [compound 108]
[1]
  ED50: 5.6 mg/kg

## COCC1CN(c2ccc(OCCCC#N)cc2)C(=O)O1 (stereo not shown) [compound 110]
[1]
  ED50: 0.3 mg/kg

## COCC1CN(c2ccc(OCCC(C)C)cc2)C(=O)O1 (stereo not shown) [compound 111]
[1]
  ED50: 0.28 mg/kg

## OCC1CN(c2ccc(OCC3CCOCC3)cc2)C(=S)O1 (stereo not shown) [compound 119]
[2]
  ED50: 8 mg/kg

## CC(=O)OCC1CN(c2ccc(OCc3cccc(C#N)c3)cc2)C(=S)O1 (stereo not shown) [compound 120]
[2]
  ED50: 3 mg/kg

## CCC(=O)OCC1CN(c2ccc(OCCC(C)C)cc2)C(=O)O1 (stereo not shown) [compound 124]
[2]
  ED50: 0.6 mg/kg

## CC(C)CC(=O)OCC1CN(c2ccc(OCc3cccc([N+](=O)[O-])c3)cc2)C(=O)O1 (stereo not shown) [compound 134]
[2]
  ED50: 3.9 mg/kg

## CCC(=O)OCC1CN(c2ccc(OCc3ccc(F)cc3)cc2)C(=O)O1 (stereo not shown) [compound 135]
[2]
  ED50: 4.2 mg/kg

## CCCCCCCCC(=O)OCC1CN(c2ccc(OCc3ccc(F)cc3)cc2)C(=O)O1 (stereo not shown) [compound 136]
[2]
  ED50: 31 mg/kg

## CCC(=O)OCC1CN(c2ccc(OCc3cc(Cl)cc([N+](=O)[O-])c3)cc2)C(=O)O1 (stereo not shown) [compound 137]
[2]
  ED50: 6 mg/kg

## CCCCCCCCC(=O)OCC1CN(c2ccc(OCc3cc(Cl)cc([N+](=O)[O-])c3)cc2)C(=O)O1 (stereo not shown) [compound 138]
[2]
  ED50: 6 mg/kg

## CCCCCOc1ccc(N2CC(COC)OC2=O)cc1 (stereo not shown) [compound 148]
[1]
  ED50: 2.2 mg/kg

## CCCCCCOc1ccc(N2CC(COC)OC2=O)cc1 (stereo not shown) [compound 149]
[1]
  ED50: 6 mg/kg

## CCCOCC1CN(c2ccc(OCc3cccc(C#N)c3)cc2)C(=O)O1 (stereo not shown) [compound 160]
[2]
  ED50: 4.2 mg/kg

## NCC1CN(c2ccc(OCC3CCCCC3)cc2)C(=O)O1 (stereo not shown) [compound 172]
[2]
  ED50: 8.6 mg/kg

## CNCC1CN(c2ccc(OCC3CCCCC3)cc2)C(=O)O1 (stereo not shown) [compound 173]
[2]
  ED50: 4.7 mg/kg
